Values after ≈ are worked out from the molar mass of the structure shown. Like-named read-outs stand apart in the source and are kept apart here.
What was measured:
[1] = tested on: undifferentiated hESCs (H1 cells); assay: resazurin cell viability assay on undifferentiated H1 hESCs (FIG. 7A); assay type: cell-based, human; settings: 40 μM, 24 hr and 48 hr; versus JC005, capsaicin (CAP) and DMSO
Description: (§1) The hESCs used are undifferentiated H1 cells, while the murine feeder cells (mouse embryonic fibroblasts (MEFs)) used are J28 C57/BL6J cells. The columns represent the means of 4 experiments while the bars represent relative fluorescence ±s.d. The control was untreated hESCs and untreated murine feeder cells (mouse embryonic fibroblasts (MEFs)) with a final DMSO concentration of 1% v/v while the final sample concentration was 40 μM. * denotes P<0.01, Student's T-test, 2-tail.
(§2) The resazurin cell viability assay was conducted on hESC, differentiated hESCs, osteoblasts, murine feeder cells (mouse embryonic fibroblasts (MEFs)), IPSCs derived from foreskin (IPS-DF19-9 and IPS-foreskin) and CSCs (colon CSCs and breast CSCs). The assay is based on the use of an indicator dye resazurin to measure the metabolic capacity of a cell. […]
(§3) In wells A12-H12, 200 μl/well DMSO were added to provide the Blank reading.
(§4) The percentage of the resazurin activity was calculated based on the following equation:
(§5) The percentage of cell death was calculated based on the following equation: % cell death=100−% activity (Eq. 2) […]
(§6) […] The plates were further incubated at 37° C. for 2 h, after which the plate was read at an excitation wavelength of 535 nm and an emission wavelength of 590 nm with a Tecan Infinite 200 microplate reader.

[2] = tested on: differentiated hESCs (H1); assay type: cell-based
Description: (§7) The resazurin cell viability assay was conducted on hESC, differentiated hESCs, osteoblasts, murine feeder cells (mouse embryonic fibroblasts (MEFs)), IPSCs derived from foreskin (IPS-DF19-9 and IPS-foreskin) and CSCs (colon CSCs and breast CSCs). The assay is based on the use of an indicator dye resazurin to measure the metabolic capacity of a cell. A viable cell would retain the ability to reduce resazurin to resorufin, which is a highly fluorescent compound.
as §4
(§8) The percentage of cell death was calculated based on the following equation: % cell death=100−% activity (Eq. 2)
(§9) The cells were plated in a 96-well multi-well plate 5 days before the assay. 200 μL of medium containing 10^5/mL cells (i.e. 2×10^4 cells) were used for each well.
The cells were then treated with 12.5 μg/mL of the capsaicin analogues. The final concentration of DMSO used as control was 1% v/v.
[…] The media was then removed from the wells and 100 μL of PBS buffer was added to each well. 20 μL of resazurin was added to each well to give a final resazurin concentration of 8 μg/mL. The plates were further incubated at 37° C. for 2 h, after which the plate was read at an excitation wavelength of 535 nm and an emission wavelength of 590 nm with a Tecan Infinite 200 microplate reader.
bGFG is a critical growth factor that maintains the hESCs in the undifferentiated state. Removal or withdrawal of bGFG induces hESCs to undergo differentiation.

hESCs = assay: light microscopy of hESC colonies cultured on murine feeder cells, hESC-selective killing; assay type: cell-based, human; settings: for selective killing of hESCs (FIG. 4): 24 hr incubation; for lowest concentration at which cytotoxic effects were seen: 2.5 μg/mL = 8 μM; for killing of hESCs (light microscopic images, FIG. 2): JC010 12 and 24 hours, JC011 24 hours; for cytotoxic effect on undifferentiated hESCs (summary) / specificity (hESCs versus feeder cells), compared among JC010, JC011 and JC017: summary of the experimental data
Description: (§10) Using the above cell viability assays, various cell types including hESCs, differentiated hESCs, human primary astrocytes and murine feeder cells (mouse embryonic fibroblasts (MEFs)) were treated with one of the analogues synthesized in Examples 1 to 3. The cells were then visualized with 5×, 10×, 20× and 40× objectives using dark field, phase optics and fluorescence microscopy with an Olympus IX51 inverted microscope or Leica MZ8 stereomicroscope.
(§11) In the phase contrast optics images (FIGS. 1A and 1B), the hESCs are seen as dark colonies surrounded by the murine feeder cells (mouse embryonic fibroblasts (MEFs)). In the dark field images (FIGS. 1C and 1D), the hESCs are seen as bright colonies surrounded by the murine feeder cells (mouse embryonic fibroblasts (MEFs)).

undifferentiated hESCs = assay: dose response curves on undifferentiated hESCs (FIG. 11A); assay type: cell-based, human; settings: from dose response curve FIG. 11A
Excerpt: In other words, JC010 and JC011 were very cytotoxic against undifferentiated hESCs. It can also be seen from the dose response curve in FIG. 11B, that both analogues were not cytotoxic to differentiated cells.

hESC = assay: Trypan Blue cell viability assay on hESC; assay type: cell-based, human; settings: 40 μM; 24 hours (JC011 also 48 hr), compared to untreated hESC
Description: The images on the left (A and B) show untreated hESC while the images on the right (C and D) show hESC treated with 40 μM of JC010 for 24 hours. The arrows indicate trypan blue positive dead cells.
The Trypan Blue cell viability assay was conducted by first diluting 10 μL of a cell suspension with 10 μL of 0.4% w/v Trypan Blue solution. The cell suspension and Trypan Blue solution were mixed using a pipette, after which the mixture was incubated at room temperature for 10 minutes. 20 μL of the mixture was then loaded into a charged hemocytometer for visualization under 10× and 20× magnification phase optics microscopy. Cells which stain blue are dead cells.

[3] = tested on: breast CSC cell line (Celprogen Cat#36102-29P-T25); assay: resazurin cell viability assay on breast CSC cell line; assay type: cell-based; settings: 12.5 μg/mL, FIG. 14
[4] = tested on: normal human primary astrocytes; assay: resazurin cell viability assay on normal human primary astrocytes (FIG. 8B); assay type: cell-based
[5] = tested on: murine feeder cells (mouse embryonic fibroblasts (MEFs)), J28 C57/BL6J cells; assay: resazurin cell viability assay on murine feeder cells (FIG. 7B); assay type: cell-based; settings: 40 μM, 24 hr and 48 hr; versus JC005, capsaicin (CAP) and DMSO
Description: as §1, §2, §3, §4, §5, §6

[6] = tested on: colon CSC cell line (Celprogen Cat#36112-39P-T25); settings: 12.5 μg/mL, FIG. 13
CSCs = assay: cytotoxic effect on CSCs, summary over colon and breast CSC lines; assay type: cell-based; settings: summary of the experimental data
Description: Seven analogues having different side chain lengths (JC010, JC011, JC017, JC040, JC048, JC049 and JC050) were tested for their cytotoxic effect on CSCs using the resazurin cell viability assay. Two CSC cell lines were used, a colon CSC cell line (Celprogen Cat#36112-39P-T25) and a breast CSC cell line (Celprogen Cat#36102-29P-T25).

IPS-DF19-9 cells = assay: resazurin cell viability assay on IPS-DF19-9 cells; assay type: cell-based; settings: 12 μg/mL, 16-hour exposure
Description: as §7, §4, §8, §9
(§12) The cells were then incubated at 37° C. for about 16 h overnight in 5% CO2. The media was then removed from the wells and 100 μL of PBS buffer was added to each well. 20 μL of resazurin was added to each well to give a final resazurin concentration of 8 μg/mL. The plates were further incubated at 37° C. for 2 h, after which the plate was read at an excitation wavelength of 535 nm and an emission wavelength of 590 nm with a Tecan Infinite 200 microplate reader. […]

IPS-foreskin cells = assay: resazurin cell viability assay on IPS-foreskin cells; assay type: cell-based; settings: 12 μg/mL, 16-hour exposure
Description: as §7, §4, §8, §9, §12

Wicell H1 cells = assay: dichlorofluorescin diacetate (DCFH-DA) analysis of reactive oxygen species; assay type: cell-based, human; settings: 12.5 μg/mL, 3 hr
Description: Live adherent cells were washed with PBS solution. DCHF-DA solution was then added to the cells in PBS solution at a final working concentration of 10 μM. The mixture was then incubated at room temperature for 5 minutes, and visualized under a fluorescence microscope with FITC filters. Bright green fluorescent cells are indicative of cells with a high content of reactive oxygen species (ROS).

[7] = comparison value, source not given; cited from earlier work
[8] = tested on: murine feeder cells (mouse embryonic fibroblasts (MEFs)); assay: light microscopy of murine feeder cells co-cultured with hESCs; assay type: cell-based; settings: summary of the experimental data
Description: as §10, §11

## CCCCCCCCNC(=O)NCc1ccc(O)c(O)c1 [JC010]
[1]
  relative fluorescence of treated undifferentiated hESCs (H1 cells): significantly lower
[2]
  cytotoxic effect on differentiated cells (summary): relatively low
  cytotoxicity to differentiated cells (dose response curve): not cytotoxic
hESCs; 2.5 μg/mL (8 μM)
  selective killing of hESCs (FIG. 4): selectively killed
hESCs
  lowest concentration at which cytotoxic effects were seen: 2.5 µg/mL
  cytotoxic effect on undifferentiated hESCs (summary): particularly high cytotoxic effect
hESCs; 12.5 μg/mL (40 μM)
  selective killing of hESCs (FIG. 4): selectively killed
hESCs; 40 μM
  killing of hESCs (light microscopic images, FIG. 2): selective and rapid killing of hESCs
Undifferentiated hESCs; Homo sapiens
  IC50: ~2.5 µg/mL (≈ 8.49 µM)
hESC cell line BGO1v
  cell death of hESCs (BGO1v): high percentages of cell death
hESC
  killing of hESC in Trypan Blue assay (FIGS. 5 and 6): wide spread killing of hESC
[3]
  cell death, breast CSC cell line: about 15%
[4]
  cell death of normal human primary astrocytes: low percentages of cell death
[5]
  relative fluorescence of treated murine feeder cells: not significantly different

## CCCCCCCCCCC(=O)NCc1ccc(O)c(O)c1 [JC049]
[3]
  cell death, breast CSC cell line: 25-35%
[6]
  cell death, colon CSC cell line: 15-33%
CSCs
  cytotoxic effect on CSCs (summary): high cytotoxic effect

## CCCCCCNC(=O)Cc1cc(O)ccc1O [JC025]
hESC cell line BGO1v
  selective cytotoxic activity towards undifferentiated or dedifferentiated stem cells: did not exhibit any selective cytotoxic activity

## CCCCCCCCCCCC(=O)NCc1ccc(O)c(O)c1 [JC048]
[3]
  cell death, breast CSC cell line: ~55%
[6]
  cell death, colon CSC cell line: ~45%
CSCs
  cytotoxic effect on CSCs (summary): high cytotoxic effect

## CCCCCCCCCC(=O)NCc1ccc(O)c(O)c1 [JC040]
[3]
  cell death, breast CSC cell line: 25-35%
[6]
  cell death, colon CSC cell line: ~45%
CSCs
  cytotoxic effect on CSCs (summary): high cytotoxic effect

## CCCCCCCCC(=O)NCc1ccc(O)c(O)c1 [JC011]
IPS-DF19-9 cells
  IPS-DF19-9 cells killed compared to the control: about 67%
  IPS-DF19-9 cells remained alive: 33%
[1]
  relative fluorescence of treated undifferentiated hESCs (H1 cells): significantly lower
[2]
  cytotoxic effect on differentiated cells (summary): relatively low
  cytotoxicity to differentiated cells (dose response curve): not cytotoxic
[2]; 40 μM, 24 hr, bGFG withdrawn, FIG. 9
  killing of differentiated hESCs (relative fluorescence versus control): did not kill differentiated hESCs
hESCs; 2.5 μg/mL (8 μM)
  selective killing of hESCs (FIG. 4): selectively killed
hESCs
  lowest concentration at which cytotoxic effects were seen: 2.5 µg/mL
  cytotoxic effect on undifferentiated hESCs (summary): particularly high cytotoxic effect
  specificity (hESCs versus feeder cells), compared among JC010, JC011 and JC017: highest specificity
hESCs; 12.5 μg/mL (40 μM)
  selective killing of hESCs (FIG. 4): selectively killed
hESCs; 40 μM
  killing of hESCs (light microscopic images, FIG. 2): selective and rapid killing of hESCs
Undifferentiated hESCs
  IC50 (in words): at the nanogram level
hESC cell line BGO1v
  cell death of hESCs (BGO1v): high percentages of cell death
hESC
  killing of hESC in Trypan Blue assay (FIGS. 5 and 6): wide spread killing of hESC
[3]
  cell death, breast CSC cell line: about 15%
IPS-foreskin cells
  IPS-foreskin cells killed compared to the control: about 62%
  IPS-foreskin cells remained alive: 38%
[4]
  cell death of normal human primary astrocytes: low percentages of cell death
[5]
  relative fluorescence of treated murine feeder cells: not significantly different
Wicell H1 cells
  ROS content compared to untreated cells: decreased significantly

## COc1cc(CNC(=O)CCCC/C=C/C(C)C)ccc1O [capsaicin]
[7]
  concentration for in vitro cytotoxic effect: 100 µM

## CCCCCCCCC(=O)NCc1ccc(OC)c(O)c1 [JC005]
hESCs; 12.5 μg/mL (40 μM)
  selective killing of hESCs (FIG. 4): No such killing effect
hESC cell line BGO1v; 40 μM, FIG. 8A
  cell death of hESCs (BGO1v): not cytotoxic
[4]; 40 μM, FIG. 8B
  cell death of normal human primary astrocytes: not cytotoxic

## CCCCCCCCCCCCCC(=O)NCc1ccc(O)c(O)c1 [JC050]
[3]
  cell death, breast CSC cell line: 25-35%

## CCCCCCNC(=O)NCc1ccc(O)c(O)c1 [JC017]
hESCs; 40 μM, 12 hours, compared to FIG. 2
  killing effect on hESCs (light microscopic images, FIG. 3): not as selective nor as potent as the effect of the analogues JC010 and JC011
hESCs
  cytotoxic effect on undifferentiated hESCs (summary): particularly high cytotoxic effect
  specificity (hESCs versus feeder cells), compared among JC010, JC011 and JC017: lowest specificity
hESC cell line BGO1v
  cell death of hESCs (BGO1v): high percentages of cell death
[8]
  killing of feeder cells (summary): some feeder cells were also killed
[3]
  cell death, breast CSC cell line: about 15%
[6]
  cell death, colon CSC cell line: 15-33%
[4]
  cell death of normal human primary astrocytes: low percentages of cell death

## CCCCCCCCNC(=O)Cc1cc(O)ccc1O [JC026]
hESC cell line BGO1v
  selective cytotoxic activity towards undifferentiated or dedifferentiated stem cells: did not exhibit any selective cytotoxic activity

Reference: patent US8703822B2, “Method for removing undifferentiated and dedifferentiated stem cell” (Nanyang Polytechnic, priority 2009, dated 2014)
